Measured values from patent US20030170221A1, “STREPTOMYCES MEGASPORUS SD5, PROCESS FOR THE ISOLATION THEREOF, NOVEL FIBRINOLYTIC ENZYME PREPARED THEREFROM, PROCESS FOR THE PRODUCTION OF SAID ENZYME AND METHOD OF TREATMENT OF THROMBOLYTIC DISORDERS USING SAID ENZYME” (MAHARASHTRA ASSOC. FOR THE CULTIVATION OF SCIENCE, priority 2001, published 2003).
Read-outs that look alike come from different tables or passages of the source. Square brackets hold non-standard residues; d marks the D form. Peptide text beside a SMILES is read from it. * marks the point of attachment. Sta = CC(C)C[C@H](N)[C@@H](O)CC(=O)O; Isovaleryl = CC(C)CC(=O)*

Experiments:
[1] = reportedly; cited from earlier work
fibrin = settings: prior art; cited from earlier work
[2] = Pharmacological properties of thrombolytic agents in acute myocardial infarctions; settings: for Efficacy (<4 h): acute myocardial infarctions
[3] = test system: fibrinolytic enzyme produced by S. megasporus SD5; assay: Effect of protease inhibitors on fibrinolytic activity of the crude enzyme (FIG. 5); format: biochemical, Streptomyces megasporus SD5
Excerpt: (§1) 1.Control, 2—Antipain—3, Bestatin, —4, Chymostatin, —5. E-64, 6—Leupeptin, 7—Pepstatin, 8 Phosphoramidon, 9—pefabloc, 10—EDTA, 11—EDTA+Ca^++, 12—Aprotinin, 13—Trypsin inhibitor, 14—β-mercaptoethanol, 15—TPCK, 16—1, 10 pheuanthroline, 17—PMSF.
To determine the class to which the enzyme belonged the effect of different protease inhibitors were studied in detail.

actinokinase = assay: Effects of inhibitors and metal ions on activity of the purified enzyme; format: biochemical, Streptomyces megasporus SD5
Method: (§2) Different protease inhibitors were separately dissolved in distilled water/methanol/dimethyl sulphoxide as per manufacturers protocol, so that final concentration of each inhibitor was 1 mM. The enzyme (50 μl) was mixed with same amount (50 μl) of inhibitor and incubate at ambient temperature for 30 min. The residual activity was measured at 55° C. as above using universal protease substrate and compared with that of the control without any inhibitor and the inhibition was determined as percentage taking control as 100% positive.

[4] = cited from earlier work
[5] = test system: fibrinolytic enzyme (actinokinase) produced by Streptomyces megasporus SD5, ~35 kDa, wild type; assay: Effects of various inhibitors on fibrinolytic activity of the enzyme (FIG. 5); format: biochemical; settings: result in words
Method: as §1
The fibrinolytic (thrombolytic) activity was assayed on solid and liquid media (Harverkate & Trass 1974, Lottenberg et al. 1981). The reaction mixture (1 ml) comprised of chromogenic substrates, such as benzoyl-β-alanyl-glycyl-arginine-ρ nitroanilide (20 μmol 1^−1) in 10 mM sodium phosphate buffer, pH 8.0 and incubated at 55° C. for 30 min after addition of 1 ml, enzyme solution containing 0.5 μg protein ml^−1, cooled to room temperature and the liberation of ρ-nitroanilide was measured by increased absorbance recorded at 405 nm using a UV-VIS Spectrophotometer (DU 8B, Beckman, Sweden). One unit of the enzyme was defined as the amount of enzyme that catalysed the formation of 1 ng of ρ-nitroanilide min^−1. The caseinolytic activity was determined by Dunn (1989) in terms of μmol tyrosine min^−1. Protein was determined using Folin Ciocalteau phenol reagent. All the results of growth and assays are the means of three separate experiments.
To determine the class to which the enzyme belonged the effect of different protease inhibitors were studied in detail. As the fibrinolytic enzyme could be used as a therapeutic agent for different types of thrombosis so in vitro clot lysis was studied with both natural and synthetic clots.

[6] = test system: actinokinase, fibrinolytic enzyme from Streptomyces megasporus SD5, 35 kDa serine protease, wild type; settings: 1 mM inhibitor, ambient temperature 30 min; residual activity at 55° C., universal protease substrate
Method: as §2

[7] = in vivo
[8] = Table III, available enzymes; cited from earlier work
[9] = test system: actinokinase, fibrinolytic enzyme from Streptomyces megasporus SD5, 35 kDa serine protease, wild type; assay: Michaelis constant with Chromozyme U as substrate, Lineweaver-Burk plot; format: biochemical; settings: in absence of plasminogen
Method: The thrombolytic activity was measured on standard fibrin plate using the method of Haverkate-Trass (1974) as mentioned previously and compared with available thrombolytic enzyme, urokinase, Each sample (20 μl) was put on the fibrin clot layer and incubated at both 55° C. and 37° C. for 8 h. The zone of clear areas for standard urokinase and the enzyme of the invention was measured and thrombolytic activities of both enzymes were expressed in terms of Plough units. Amidolytic activity was determined using chromogenic substrates and one unit of activity is defined as the amount of enzyme, which released […] of pNA min^−1. Amydolytic activity in liquid medium was determined using the method by Lottenberg et al (1981). Caseinolytic activity was assayed by the procedure described by Pokorny et al (1979). Protein concentration was estimated by a modification of the Lowry's method (1951).
Substrate specificity of the enzyme was assessed at 405 nm by using various synthetic peptide substrates, (20 μM) tagged with ρ-nitranilide acetate and resorufin, in the reaction mixture. The Michaelis constant (Km) was determined using Chromozyme U as substrate using line weaver Burk plot method (Jayaraman 1985).

[10] = test system: Streptomyces megasporus SD5; assay: Antibiotic sensitivity of the strain; format: cell-based; settings: concentration of 50 μg ml^−1
[11] = inhibitor 1 mM, purified enzyme, universal protease substrate, 55° C.

For “Streptokinase: prior art plasminogen activator”, the “failure rate as thrombolytic agent” value [1] is listed as ≤ 25%, the affinity for fibrin (fibrin) is listed as “do not show any affinity” and the “Efficacy (<4 h)” value [2] is listed as 65. The Adverse effects ([2]; in vivo) was “Haemorragic” and the “Half life” value ([2]; in vivo) was 23 min.

For `Cc1ccc(S(=O)(=O)N[C@@H](Cc2ccccc2)C(=O)CCl)cc1` [TPCK], the “effect of inhibitor on fibrinolytic activity of the enzyme” value (“effect of inhibitor … of the enzyme” for short) ([3]; crude enzyme, FIG. 5) was “moderately sensitive” and the “effect of inhibitor on enzymatic activity” value (actinokinase; [11]) was “moderately sensitive”.

With `CC(C)C[C@H](NC(=O)[C@@H](NC(=O)N[C@@H](Cc1ccccc1)C(=O)O)[C@@H]1CCN=C(N)N1)C(=O)N[C@H](C=O)Cc1ccccc1` [Chymostatin] the “effect of inhibitor … of the enzyme” value ([3]; crude enzyme, FIG. 5) was “strongly repressed” and the “effect of inhibitor on enzymatic activity” value (actinokinase; [11]) was “highly repressed”.

For T-PA: tissue plasmiogen activators, the “Efficacy (<4 h)” value ([4]; acute myocardial infarctions, data from the literature) is given as 70 and the “Half life” value ([4]; in vivo) is given as 5 min.

In the case of `O=C(O)CN(CCN(CC(=O)O)CC(=O)O)CC(=O)O` [EDTA], the “effect of inhibitor … of the enzyme” value [3] is reported as “inhibitory effect”, the “effect of inhibitor on fibrinolytic activity” value [5] is reported as “inhibitory effect” and the “effect of inhibitor on enzymatic activity” value (actinokinase) is reported as “inhibitory effect”. The “effect of inhibitor on enzymatic activity” value [6] was “inhibitory effect”.

In the case of `CC(C)C[C@H](NC(=O)[C@H]1O[C@@H]1C(=O)O)C(=O)NCCCCN=C(N)N` [E-64], the “effect of inhibitor on enzymatic activity” value (actinokinase; [11]) is reported as “Insignificant inhibition”.

In the case of Urokinase, the “Half life” value [7] is given as 16 min, the “Optimum Temperature” value [8] is given as 37 °C and the “Optimum pH” value [8] is given as 7.5. The affinity for fibrin (fibrin) was “do not show any affinity” and the “Efficacy (<4 h)” value [2] was 65.

With `CC(C)C[C@H](NC(=O)[C@@H](O)[C@H](N)Cc1ccccc1)C(=O)O` [Bestatin] the “effect of inhibitor … of the enzyme” value ([3]; crude enzyme, FIG. 5) was “strongly repressed” and the “effect of inhibitor on enzymatic activity” value (actinokinase; [11]) was “highly repressed”.

In the case of `c1cnc2c(c1)ccc1cccnc12` [1,10 phenanthroline], the “effect of inhibitor … of the enzyme” value ([3]; crude enzyme, FIG. 5) is reported as “No change”, the “effect of inhibitor on fibrinolytic activity” value [5] is reported as “No change in the activity” and the “effect of inhibitor on enzymatic activity” value (actinokinase; [11]) is reported as “No change in activity”.

With Aprotinin the “effect of inhibitor … of the enzyme” value ([3]; crude enzyme, FIG. 5) was “strongly repressed” and the “effect of inhibitor on enzymatic activity” value (actinokinase; [11]) was “highly repressed”.

For `O=S(=O)(F)Cc1ccccc1` [PMSF], the “effect of inhibitor … of the enzyme” value ([3]; crude enzyme, FIG. 5) was “strongly repressed” and the “effect of inhibitor on enzymatic activity” value (actinokinase; [11]) was “highly repressed”.

For `CC(C)C[C@H](NP(=O)(O)O[C@@H]1O[C@@H](C)[C@H](O)[C@@H](O)[C@H]1O)C(=O)N[C@@H](Cc1c[nH]c2ccccc12)C(=O)O` [phosphoramidin], the “effect of inhibitor on fibrinolytic activity” value [5] was “No change in the activity”.

Work on `N=C(N)NCCC[C@H](NC(=O)CNC(=O)CCNC(=O)c1ccccc1)C(=O)Nc1ccc([N+](=O)[O-])cc1` [chromozyme U, Benzoyl-β-ala-gly-arg-4-ρNA] (HELM PEPTIDE1{[O=C(c1ccccc1)[*:2]].[bAla].G.R.[O=[N+]([O-])c1ccc(N[*:1])cc1]}$$$$V2.0) yielded a Km [9] of 2.2 µM.

For `CC(C)CC(=O)N[C@H](C(=O)N[C@H](C(=O)N[C@@H](CC(C)C)[C@@H](O)CC(=O)N[C@@H](C)C(=O)N[C@@H](CC(C)C)[C@@H](O)CC(=O)O)C(C)C)C(C)C` [Pepstatin] (Isovaleryl-VV[Sta]A[Sta]-OH), the “effect of inhibitor on enzymatic activity” value (actinokinase; [11]) was “Insignificant inhibition”.

In the case of `C=C(NC(=O)C(=C)NC(=O)c1csc(C2=N[C@@H]3c4csc(n4)[C@H]4NC(=O)c5csc(n5)[C@H]([C@](C)(O)[C@@H](C)O)NC(=O)[C@H]5CSC(=N5)/C(=C/C)NC(=O)[C@H]([C@@H](C)O)NC(=O)c5csc(n5)[C@]3(CC2)NC(=O)[C@H](C)NC(=O)C(=C)NC(=O)[C@H](C)NC(=O)[C@H]([C@@H](C)CC)N[C@@H]2C=Cc3c([C@H](C)O)cc(nc3[C@H]2O)C(=O)O[C@@H]4C)n1)C(N)=O` [thiostrepton], the “inhibition of the microorganism” value [10] is reported as “inhibited”.

In the case of `OCCS` [β-mercaptoethanol], the “effect of inhibitor on enzymatic activity” value (actinokinase; [11]) is reported as “Insignificant inhibition”.

With `CCC[C@@H]1C[C@@H](C(=O)N[C@@H]([C@H]2O[C@H](SC)[C@H](O)[C@@H](O)[C@H]2O)[C@@H](C)O)N(C)C1` [lincomycin] the “inhibition of the microorganism” value [10] was “inhibited”.

In the case of `Cl.NCCc1ccc(S(=O)(=O)F)cc1` [Pefabloc, pefabloc], the “effect of inhibitor … of the enzyme” value ([3]; crude enzyme, FIG. 5) is reported as “strongly repressed” and the “effect of inhibitor on enzymatic activity” value (actinokinase; [11]) is reported as “highly repressed”.

For `CC(=O)N[C@@H](CC(C)C)C(=O)N[C@@H](CC(C)C)C(=O)N[C@H](C=O)CCCNC(=N)N` [Leupeptin], the “effect of inhibitor … of the enzyme” value ([3]; crude enzyme, FIG. 5) was “moderately sensitive” and the “effect of inhibitor on enzymatic activity” value (actinokinase; [11]) was “moderately sensitive”.

For `CC(C)C[C@H](NP(=O)(O)O[C@@H]1O[C@@H](C)[C@H](O)[C@@H](O)[C@H]1O)C(=O)N[C@@H](Cc1c[nH]c2ccccc12)C(=O)O` [Phosphoramidon], the “effect of inhibitor … of the enzyme” value ([3]; crude enzyme, FIG. 5) was “No change” and the “effect of inhibitor on enzymatic activity” value (actinokinase; [11]) was “No change in activity”.
